Holding throughout (type): in vivo
What all share (parameters): unit not given here

Assay [1] deals with spontaneously hypertensive rat (SHR). Description: Blood pressure-lowering effect of combined administration of angiotensin receptor blocker and dapagliflozin in SHR. The conditions noted are these: Dapagliflozin 1 mg/kg/day. On the procedure:
(§1) The animals were housed in a room with a temperature of […] relative humidity of 50±10%, and a 12-hour light/dark cycle, and food and water were provided ad libitum.
(§2) All data are expressed as mean±S.E.M. Blood pressure measurements were schematized using GraphPad Prism 9 (GraphPad Software Inc., San Diego, CA).
Blood pressure was measured daily immediately before (0 hr) and 4 hours after (4 hr) dosing while administering the drug for a total of 19 days, and the recovery of blood pressure was monitored during a 1-week recovery period after the end of administration.

Assay [2] shares this test system. Description: Blood pressure-lowering effect of combined administration of angiotensin receptor blocker and empagliflozin in SHR. The conditions noted are these: Empagliflozin 1 mg/kg/day. The method, then:
as §1, §2
Blood pressure was measured daily immediately before (0 hr) and 4 hours after (4 hr) dosing while administering the drug for a total of 19 days, and the recovery of blood pressure was monitored during a 1-week recovery period after the end of administration. Specifically, the animals were divided into two groups to evaluate the blood pressure response when fimasartan (Group 1) or dapagliflozin (Group 2) was administered alone, and to evaluate the blood pressure response to the addition of the other drugs in sequentially increasing doses, and the results are shown in FIG. 2.
The experiments were conducted in the same manner as in Example 3 above, but using empagliflozin as an SGLT2 inhibitor.
The angiotensin receptor blockers, fimasartan, azilsartan, and olmesartan were divided by dose, and each administered alone or in combination with empagliflozin, and the results of blood pressure measurements in each experimental group are shown in Table 4 and FIGS. 7 to 9 below.

Assay [3] has the same test system. The assay is described as above. The conditions noted are these: Empagliflozin 1 mg/kg/day, Day 14 (4 h).

In the case of `CCOc1ccc(Cc2cc([C@@H]3O[C@H](CO)[C@@H](O)[C@H](O)[C@H]3O)ccc2Cl)cc1` [Dapagliflozin, dapagliflozin], the “Blood pressure, Mean” value in assay [1] (Day 1 (pre-dose)) is given as 100.0; in assay [1] (Day 7 (4 h)) it was 101.2; in assay [1] (Day 14 (4 h)), 96.5; in assay [1] (Recovery), 105.5.
For `OC[C@H]1O[C@@H](c2ccc(Cl)c(Cc3ccc(O[C@H]4CCOC4)cc3)c2)[C@H](O)[C@@H](O)[C@@H]1O` [Empagliflozin, empagliflozin], the “Blood pressure, Mean” value in assay [2] (Day 1 (pre-dose)) is 100.0; in assay [2] (Day 7 (4 h)), 97.1; in assay [2] (Recovery), 101.8; in assay [3], 96.4.

Values taken from patent US20250000849A1, “COMPOSITE COMPOSITION CONTAINING ANGIOTENSIN RECEPTOR BLOCKER AND SGLT2 INHIBITOR” (MEDITAKE CO., LTD., priority 2021, published 2025).
